Values after ≈ are worked out from the molar mass of the structure shown. Active and inactive are the calls of the source. Unless noted, the rule behind the calls is not given here.
Legend:
Staphylococcus aureus [1] = test: Antibacterial activity against methicillin-resistant Staphylococcus aureus ATCC 33591 by CLSI method; format: functional, organism-based
Leishmania donovani [2] = test: Antileishmanial activity against axenic amastigote of Leishmania donovani after 72 hrs by alamar blue assay; format: functional, organism-based
Staphylococcus aureus [3] = test: Antibacterial activity against Staphylococcus aureus ATCC 29213 by CLSI method; format: functional, organism-based
Leishmania donovani [4] = test: Antileishmanial activity against promastigote of Leishmania donovani after 72 hrs by alamar blue assay; format: functional, organism-based
Vero = test: Cytotoxicity against african green monkey Vero cells up to 4.6 ug/ml after 48 hrs by neutral red assay; format: cell-based; conditions: chlorocebus sabaeus
[5] = tested on: Mycobacterium intracellulare; test: Antibacterial activity against Mycobacterium intracellulare ATCC 23068 by alamar blue assay; format: functional, organism-based
Aspergillus fumigatus = test: Antifungal activity against Aspergillus fumigatus ATCC 204305 by CLSI method; format: functional, organism-based
Cryptococcus neoformans = test: Antifungal activity against Cryptococcus neoformans ATCC 90113 by CLSI method; format: functional, organism-based
Candida albicans = test: Antifungal activity against Candida albicans ATCC 90028 by CLSI method; format: functional, organism-based
[6] = Staphylococcus aureus, ATCC 33591, read-out: IC50
[7] = Leishmania donovani, 72 h, read-out: IC50
[8] = Staphylococcus aureus, ATCC 33591
[9] = Mycobacterium intracellulare, ATCC 23068, read-out: IC50

Row | Compound | MBC (Staphylococcus aureus [1]) | MIC (Staphylococcus aureus [1]) | IC50 (Staphylococcus aureus [1]; [6]) | IC50 (Staphylococcus aureus [3]) | MBC (Staphylococcus aureus [3]) | MIC (Staphylococcus aureus [3]) | IC50 (Leishmania donovani [4]; [7]) | Activity (Vero) | IC50 [5] | MBC [5] | MIC [5] | IC50 (Leishmania donovani [2]; [7]) | IC90 (Leishmania donovani [4]; Leishmania donovani, 72 h) | MIC (Staphylococcus aureus [1]; [8]) | Activity (Aspergillus fumigatus) | IC90 (Leishmania donovani [2]; Leishmania donovani, 72 h) | IC50 (Cryptococcus neoformans) | MFC (Cryptococcus neoformans) | MIC (Cryptococcus neoformans) | Activity (Candida albicans) | further results
1 | COc1ccc(C(c2c[nH]c3ccccc23)c2c[nH]c3ccccc23)cc1Br | inactive | inactive | 31.5 µM | 7.84 µM | inactive | inactive | 82.9 µM | Non-toxic | Not Active | inactive | inactive | – | – | – | – | – | – | – | – | – | IC50 (Leishmania donovani [2]): Not Active; IC90 (Leishmania donovani [2]): inactive; IC90 (Leishmania donovani [4]): inactive
2 | COc1ccc2[nH]cc(C(c3cccc4ccccc34)c3c[nH]c4ccc(OC)cc34)c2c1 | inactive | inactive | – | 39.7 µM | inactive | inactive | 66.5 µM | Non-toxic | Not Active | inactive | inactive | 33.2 µM | 82.9 µM | – | – | – | – | – | – | – | IC50 (Staphylococcus aureus [1]): Not Active; IC90 (Leishmania donovani [2]): inactive
3 | Fc1ccc(C(c2c[nH]c3ccccc23)c2c[nH]c3ccccc23)cc1Br | inactive | – | 9.23 µM | 3.76 µM | inactive | 5.98 µM (≈ 2.51 µg/mL) | 17.6 µM | Non-toxic | Not Active | inactive | inactive | 47.5 µM | 22.9 µM | 23.9 µM (≈ 10 µg/mL) | inactive | 74.5 µM | 1.94 µM | 5.98 µM (≈ 2.51 µg/mL) | 2.99 µM (≈ 1.25 µg/mL) | inactive | –
4 | Oc1ccccc1C(c1c[nH]c2ccccc12)c1c[nH]c2ccccc12 | inactive | inactive | 36.2 µM | 17.2 µM | inactive | 59.2 µM (≈ 20 µg/mL) | 41.1 µM | Non-toxic | Not Active | inactive | inactive | 95.9 µM | 75.7 µM | – | inactive | – | 14.6 µM | inactive | 59.2 µM (≈ 20 µg/mL) | inactive | IC90 (Leishmania donovani [2]): inactive
5 | O=[N+]([O-])c1ccc(C(c2c[nH]c3ccccc23)c2c[nH]c3ccccc23)o1 | inactive | – | 8.54 µM | 12 µM | 28 µM (≈ 10 µg/mL) | 28 µM (≈ 10 µg/mL) | 6.61 µM | Non-toxic | – | inactive | inactive | 31.5 µM | 12.2 µM | 14 µM (≈ 5 µg/mL) | inactive | 41.8 µM | 29.6 µM | inactive | inactive | inactive | IC50 [5, 9]: 52.9 µM
6 | Oc1ccc(C(c2c[nH]c3ccc(I)cc23)c2c[nH]c3ccc(I)cc23)cc1 | – | – | 1.15 µM | 2.1 µM | 33.9 µM (≈ 20 µg/mL) | 4.24 µM (≈ 2.5 µg/mL) | 19.1 µM | Non-toxic | Not Active | inactive | inactive | 39.8 µM | 53.2 µM | 2.12 µM (≈ 1.25 µg/mL) | inactive | 52.5 µM | 1.8 µM | – | – | inactive | MBC (Staphylococcus aureus [1]; [8]): 10 µM (≈ 5.9 µg/mL)
7 | COc1ccc2[nH]cc(C(c3c(Cl)cccc3Cl)c3c[nH]c4ccc(OC)cc34)c2c1 | inactive | inactive | 17.2 µM | 7.51 µM | inactive | inactive | – | Non-toxic | Not Active | inactive | inactive | – | – | – | – | – | – | – | – | – | IC50 (Leishmania donovani [2]): Not Active; IC90 (Leishmania donovani [2]): inactive; IC50 (Leishmania donovani [4]): Not Active; IC90 (Leishmania donovani [4]): inactive
8 | COc1ccc2[nH]cc(C(c3cc(F)cc(F)c3)c3c[nH]c4ccc(OC)cc34)c2c1 | inactive | – | 6.89 µM | 4.05 µM | inactive | 11.7 µM (≈ 4.9 µg/mL) | 26.8 µM | Non-toxic | Not Active | inactive | inactive | 49.6 µM | 65.3 µM | 11.7 µM (≈ 4.9 µg/mL) | inactive | 78.7 µM | 18.4 µM | inactive | 47.9 µM (≈ 20 µg/mL) | inactive | –
9 | c1csc(C(c2c[nH]c3ccccc23)c2c[nH]c3ccccc23)c1 | inactive | inactive | 13.5 µM | 9.15 µM | inactive | 15.2 µM (≈ 4.99 µg/mL) | 100 µM | Non-toxic | Not Active | inactive | inactive | 70.2 µM | – | – | inactive | 101 µM | 18.9 µM | 30.5 µM (≈ 10 µg/mL) | 30.5 µM (≈ 10 µg/mL) | inactive | IC90 (Leishmania donovani [4]): inactive
10 | Fc1cc(F)cc(C(c2c[nH]c3ccccc23)c2c[nH]c3ccccc23)c1 | inactive | – | 2.93 µM | 2.32 µM | inactive | 3.49 µM (≈ 1.25 µg/mL) | 8.35 µM | Non-toxic | Not Active | inactive | inactive | 67.4 µM | 19.8 µM | 6.98 µM (≈ 2.5 µg/mL) | inactive | 95.6 µM | 2.32 µM | 3.49 µM (≈ 1.25 µg/mL) | 3.49 µM (≈ 1.25 µg/mL) | inactive | –
11 | Fc1ccc(C(c2c[nH]c3ccc(I)cc23)c2c[nH]c3ccc(I)cc23)cc1Br | – | – | – | – | – | – | 9.84 µM | Non-toxic | – | – | – | 18.2 µM | 18.2 µM | – | inactive | 31.4 µM | 16.8 µM | 29.9 µM (≈ 20 µg/mL) | 29.9 µM (≈ 20 µg/mL) | inactive | –
12 | Brc1ccc(C(c2c[nH]c3ccc(I)cc23)c2c[nH]c3ccc(I)cc23)cc1 | – | – | – | – | – | – | 4.49 µM | Non-toxic | – | – | – | 13.1 µM | 8.47 µM | – | inactive | 46.6 µM | 5.58 µM | 30.7 µM (≈ 20 µg/mL) | 30.7 µM (≈ 20 µg/mL) | inactive | –
13 | COc1ccc2[nH]cc(C(c3ccc(F)c(Br)c3)c3c[nH]c4ccc(OC)cc34)c2c1 | inactive | inactive | 4.67 µM | 3.45 µM | inactive | 10.5 µM (≈ 5.03 µg/mL) | 15.8 µM | Non-toxic | – | inactive | – | 47.6 µM | 46.6 µM | – | – | 66.8 µM | – | – | – | – | MIC ([5]; Mycobacterium intracellulare, ATCC 23068): 41.8 µM (≈ 20 µg/mL); IC50 [5, 9]: 39.6 µM
14 | COc1cc(C(c2c[nH]c3ccc(I)cc23)c2c[nH]c3ccc(I)cc23)ccc1O | inactive | – | 2.11 µM | 1.89 µM | inactive | 4.03 µM (≈ 2.5 µg/mL) | 20.8 µM | Non-toxic | Not Active | inactive | inactive | 31.6 µM | 37.9 µM | 4.03 µM (≈ 2.5 µg/mL) | inactive | 47.2 µM | 3.92 µM | inactive | 32.3 µM (≈ 20 µg/mL) | inactive | –
15 | COc1ccc(C(c2c[nH]c3ccccc23)c2c[nH]c3ccccc23)cc1O | inactive | – | 12.3 µM | 7.47 µM | inactive | 13.6 µM (≈ 5.01 µg/mL) | 85 µM | Non-toxic | Not Active | inactive | inactive | 42.2 µM | 95.6 µM | 27.2 µM (≈ 10 µg/mL) | inactive | 79.5 µM | 16.9 µM | 27.2 µM (≈ 10 µg/mL) | 27.2 µM (≈ 10 µg/mL) | inactive | –
16 | O=[N+]([O-])c1ccc(C(c2c[nH]c3ccc(I)cc23)c2c[nH]c3ccc(I)cc23)o1 | inactive | – | 11.3 µM | 7.52 µM | 16.4 µM (≈ 9.99 µg/mL) | 16.4 µM (≈ 9.99 µg/mL) | 3.02 µM | Non-toxic | Not Active | inactive | inactive | 25.3 µM | 6.22 µM | 32.8 µM (≈ 20 µg/mL) | – | 28.9 µM | – | – | – | – | –
17 | C[C@@H]1[C@H](O)[C@@H](C)/C=C/C=C/C=C/C=C/C=C/C=C/C=C/[C@H](O[C@@H]2O[C@H](C)[C@@H](O)[C@H](N)[C@@H]2O)C[C@@H]2O[C@](O)(C[C@@H](O)C[C@@H](O)[C@H](O)CC[C@@H](O)C[C@@H](O)CC(=O)O[C@H]1C)C[C@H](O)[C@H]2C(=O)O [AMPHOTERICIN B] | – | – | – | – | – | – | – | – | – | – | – | – | 0.35 µM | – | inactive | […] | 0.85 µM | 1.35 µM (≈ 1.25 µg/mL) | 1.35 µM (≈ 1.25 µg/mL) | inactive | –

Source: ChEMBL document CHEMBL2375321, “Discovery of 3,3'-diindolylmethanes as potent antileishmanial agents” (Eur J Med Chem, 2013)
